The values below come from US7354571B2, “Photoprotective compositions comprising methyltrialkylsilanes containing a cinnamate, cinnamamide, benzalmalonamide or benzalmalonate function” (L'Oreal, priority 2003, dated 2008).

The nature of this data set: UV absorption in ethanol. The following applies: for E1% / εmax: at λmax. The format is physicochemical.

Consider `CCCCC(CC)COC(=O)C(=Cc1ccc(OC[Si](C)(C)C)c(OC)c1)C(=O)OCC(CC)CCCC` (centres unmarked) [Example 7, bis(2-ethylhexyl) 2-[3-methoxy-4-(trimethylsilanylmethoxy)benzylidene]malonate], for which the λmax result is recorded as “λmax = 331 nm,”, the E1% entry is reported as “E1% = 331” and the εmax result is on record as “εmax = 18 170,”.
Consider `COC(=O)C(=Cc1ccc(OC[Si](C)(C)C)cc1)C(=O)OC` [Example 1, dimethyl 2-(4-trimethylsilanylmethoxy)benzylidenemalonate], for which the λmax entry is on record as “λmax = 317 nm,”, the E1% result is reported as “E1% = 840” and the εmax entry is on record as “εmax = 27 085,”. Moreover, where the note is “listed as Example 2”, the E1% entry is given as “E1% = 820” and the εmax result was “εmax = 26 440,”.
`CC(C)(C)COC(=O)C(=Cc1ccc(OC[Si](C)(C)C)cc1)C(=O)OCC(C)(C)C` [Example 5, dineopentyl 2-(4-trimethylsilanylmethoxy)benzylidenemalonate]: the λmax result was “λmax = 317 nm,”, the E1% result is on record as “E1% = 592” and the εmax result is “εmax = 25 730,”.
For `C[Si](C)(C)COc1ccc(C=C(C(N)=O)C(N)=O)cc1` [Example 10, 2-[4-(trimethylsilanylmethoxy)benzylidene]malonamide] the same measures were “λmax = 310 nm,”, “E1% = 696” and “εmax = 20 350,”.
For `CC(C)COC(=O)C(=Cc1ccc(OC[Si](C)(C)C)cc1)C(=O)OCC(C)C` [Example 4, diisobutyl 2-(4-trimethylsilanylmethoxy)benzylidenemalonate] the same measures were “λmax = 316 nm,”, “E1% = 663” and “εmax = 26 960,”.
On to `CC(C)OC(=O)/C=C/c1ccc(OC[Si](C)(C)C)cc1` [Example 11, isopropyl 2-(4-trimethylsilanylmethoxy)cinnamate], for which the λmax entry is “λmax = 310 nm,”, the E1% entry is “E1% = 711” and the εmax entry is “εmax = 20 800,”.
The like results for `COC(=O)C(=Cc1ccc(OC[Si](C)(C)COc2ccc(C=C(C(=O)OC)C(=O)OC)cc2)cc1)C(=O)OC` [Example 9, dimethyl 2-(4-{[({4-[3-methoxy-2-(methoxycarbonyl)-3-oxoprop-1-enyl]phenoxy}methyl)(dimethyl)silyl]methoxy}benzylidene)malonate] were, in that order, “λmax = 316 nm,”, “E1% = 903” and “εmax = 50 270,”.
The like results for `CCOC(=O)C(=Cc1ccc(OC[Si](C)(C)C)cc1)C(=O)OCC` [Example 3, diethyl 2-(4-trimethylsilanylmethoxy)benzylidenemalonate] were, in that order, “λmax = 316 nm,”, “E1% = 750” and “εmax = 26 290,”.
In the case of `COc1ccc(C=C(C(=O)OC[Si](C)(C)C)C(=O)OC[Si](C)(C)C)cc1` [Example 13, di(methyltrimethylsilanyl) 2-(4-methoxybenzylidene)malonate], the λmax result was “λmax = 313 nm,”, the E1% entry was “E1% = 653” and the εmax entry is on record as “εmax = 25 770,”.
On to `CC1(C)OC(=O)C(=Cc2ccc(OC[Si](C)(C)C)cc2)C(=O)O1` [Example 6, 2,2-dimethyl-5-[4-(trimethylsilanylmethoxy)benzylidene]-1,3-dioxane-4,6-dione], for which the λmax result is given as “λmax = 370 nm,”, the E1% result was “E1% = 756” and the εmax entry is listed as “εmax = 25 230,”.
